Each structure is given as a SMILES string.

IC50 data for one compound are collected here from BindingDB's records for doi:10.1021/jm2006222.

This experiment concerns the target 3-phosphoinositide-dependent protein kinase 1 (Homo sapiens) (UniProt O15530). In words: Inhibition of recombinant PDK1.

`CCN1CCN(c2ccc(Nc3cc(N(C)C(=O)Nc4c(Cl)c(OC)cc(OC)c4Cl)ncn3)cc2)CC1`: the 50% inhibitory concentration (IC50) is above 10 µM.

What is called IC50 is the concentration that gives 50% inhibition.
